The nature of data set [1]: pKa measurement of lipid with TNS fluorescent probe. In kind it is physicochemical. The source says: This is done with all eight buffers.
Another data set deals with BHK cells. Kind of data set: BHK expression. In kind it is cell-based. Particulars: liposomes incubated with BHK cells overnight. How it is done:
Liposomes with different lipids were incubated with BHK cells overnight and assessed for protein expression potency. From a baseline with RV05 lipid expression could be increased 18× by adding 10% 1,2-diphytanoyl-sn-glycero-3-phosphoethanolamine (DPyPE) to the liposome, 10× by adding 10% 18:2 (cis) phosphatidylcholine, and 900× by instead using RV01.

The subject of another data set is RSV F protein. In words: Total IgG titers against F protein after replicon delivery in liposomes with alternative cationic lipids. Particulars: cationic lipid of RV01 liposomes replaced; 2wp1 and 2wp2. In kind it is in vivo. An excerpt: These liposomes were also used to deliver a replicon encoding full-length RSV F protein. Total IgG titers against F protein two weeks after the first dose (2wp1) are plotted against pKa in FIG. 16. The best results are seen where the pKa is where the cationic lipid has a pKa between 5.7-5.9, but pKa alone is not enough to guarantee a high titer e.g. the lipid must still support liposome formation.
The cationic lipid in RV01 liposomes (DLinDMA) was replaced by RV16, RV17, RV18 or RV19.

The mark [2] stands for this setting: probe 6-(p-toluidino)-2-naphthalenesulfonic acid (TNS), lipid alone, TNS fluorescence method, read-out: pKa of cationic lipid.

Where two headings read alike, the source gives them in different places.

As a reminder, the pKa is the negative logarithm of the acid dissociation constant. For `CCCCCCCC/C=C\CCCCCCCC(=O)N[C@@H](CCNC(=N)N)C(=O)NCCCCCCCCCCCCCCCC` [RV02], the pKa in data set [1] (setting [2]) was > 9. Molecule `CCCCC/C=C\C/C=C\CCCCCCCCOCC(CN1CCCC1C)OCCOCCOCCNC(=O)O[C@H]1CC[C@@]2(C)C(=CC[C@H]3[C@@H]4CC[C@H]([C@H](C)CCCC(C)C)[C@@]4(C)CC[C@@H]32)C1` (some centres unmarked) [RV12] showed a pKa in data set [1] of 7. Consider `CCCCC/C=C\C/C=C\CCCCCCCCOCC(CN(C)C)OCCCCCCCC/C=C\C/C=C\CCCCC` (centres unmarked) [RV01, 1,2-dilinoleyloxy-N,N-dimethyl-3-aminopropane, reference compound], for which the pKa in data set [1] (setting [2]) is ~5.8. Further, the “increase of protein expression from a baseline with RV05 lipid” value in the data set on BHK cells was 900 ×.

In the case of `CCCCC/C=C\C/C=C\CCCCCCCCOCC(CN1CCC(C)(C)C1)OCCOCCO[C@H]1CC[C@@]2(C)C(=CC[C@H]3[C@@H]4CC[C@H]([C@H](C)CCCC(C)C)[C@@]4(C)CC[C@@H]32)C1` (some centres unmarked) [RV05], the pKa in data set [1] is ~5.8.

For the molecule `CCCCCCCC/C=C\CCCCCCCCNC(=O)C(CN(C)C)NC(=O)CCCCCCC/C=C\CCCCCCCC` (centres unmarked) [RV17], the pKa in data set [1] (setting [2]) was found to be 6.1. For `CCCCC/C=C\C/C=C\CCCCCCCCNC(=O)C(CN(C)C)NC(=O)CCCCCCC/C=C\C/C=C\CCCCC` (centres unmarked), in data set [1] (setting [2]), the pKa was determined as 6.1. Consider `CCCCCCCC/C=C\CCCCCCCCOCC(C[N+](C)(C)C)OCCCCCCCC/C=C\CCCCCCCC.[Cl-]` (centres unmarked) [RV19], for which the “Total IgG titers (FIG. 17)” value in the data set on RSV F protein is on record as “lowest results”.
